Results: ChEMBL document CHEMBL4507266, “Data for DCP probe BAY-784” (2021)

Legend:
[1] = molecular target: Beta-1 adrenergic receptor (Homo sapiens) (UniProt P08588); details: Compound concentration 10.0 uM
[2] = molecular target: Cyclin-dependent kinase 14 (Homo sapiens) (UniProt O94921); details: Compound concentration 1000.0 nM
[3] = molecular target: Kappa-type opioid receptor (Homo sapiens) (UniProt P41145); details: Compound concentration 10.0 uM
[4] = molecular target: Serine/threonine-protein kinase MARK2 (Homo sapiens) (UniProt Q7KZI7); details: Compound concentration 1000.0 nM
Sequence of Serine/threonine-protein kinase MARK2 (Homo sapiens) (Q7KZI7 whole entry): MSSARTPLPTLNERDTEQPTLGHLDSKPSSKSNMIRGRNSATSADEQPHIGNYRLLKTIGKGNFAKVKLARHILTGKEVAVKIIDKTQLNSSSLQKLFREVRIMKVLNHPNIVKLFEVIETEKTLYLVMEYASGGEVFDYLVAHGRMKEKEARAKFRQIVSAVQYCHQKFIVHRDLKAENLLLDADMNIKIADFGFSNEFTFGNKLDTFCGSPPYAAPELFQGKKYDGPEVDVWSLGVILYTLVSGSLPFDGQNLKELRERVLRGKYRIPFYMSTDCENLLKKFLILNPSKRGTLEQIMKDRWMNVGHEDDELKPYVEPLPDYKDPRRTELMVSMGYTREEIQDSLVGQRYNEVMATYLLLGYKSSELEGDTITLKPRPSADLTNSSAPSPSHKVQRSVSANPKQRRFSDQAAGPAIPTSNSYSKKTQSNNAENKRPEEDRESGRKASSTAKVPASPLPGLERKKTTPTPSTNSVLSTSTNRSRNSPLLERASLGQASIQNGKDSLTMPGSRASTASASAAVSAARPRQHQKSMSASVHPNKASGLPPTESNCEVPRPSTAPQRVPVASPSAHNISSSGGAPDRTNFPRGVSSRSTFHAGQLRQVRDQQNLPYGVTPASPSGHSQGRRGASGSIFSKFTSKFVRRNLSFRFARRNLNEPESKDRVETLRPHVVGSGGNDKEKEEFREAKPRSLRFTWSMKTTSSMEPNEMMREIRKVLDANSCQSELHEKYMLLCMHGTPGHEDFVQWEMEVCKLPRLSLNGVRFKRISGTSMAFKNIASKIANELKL

[5] = molecular target: Serine/threonine-protein kinase Sgk3 (Homo sapiens) (UniProt Q96BR1); details: Compound concentration 1000.0 nM
[6] = test system: Tyrosine-protein kinase ABL1 (Homo sapiens), P00519 [H396P]; details: Compound concentration 1000.0 nM
[7] = molecular target: Macrophage-stimulating protein receptor (Homo sapiens) (UniProt Q04912); details: Compound concentration 1000.0 nM
[8] = molecular target: Macrophage colony-stimulating factor 1 receptor (Homo sapiens) (UniProt P07333); details: Compound concentration 1000.0 nM
[9] = molecular target: Serine/threonine-protein kinase PLK2 (Homo sapiens) (UniProt Q9NYY3); details: Compound concentration 1000.0 nM
Sequence of Serine/threonine-protein kinase PLK2 (Homo sapiens) (Q9NYY3 whole entry, looked up): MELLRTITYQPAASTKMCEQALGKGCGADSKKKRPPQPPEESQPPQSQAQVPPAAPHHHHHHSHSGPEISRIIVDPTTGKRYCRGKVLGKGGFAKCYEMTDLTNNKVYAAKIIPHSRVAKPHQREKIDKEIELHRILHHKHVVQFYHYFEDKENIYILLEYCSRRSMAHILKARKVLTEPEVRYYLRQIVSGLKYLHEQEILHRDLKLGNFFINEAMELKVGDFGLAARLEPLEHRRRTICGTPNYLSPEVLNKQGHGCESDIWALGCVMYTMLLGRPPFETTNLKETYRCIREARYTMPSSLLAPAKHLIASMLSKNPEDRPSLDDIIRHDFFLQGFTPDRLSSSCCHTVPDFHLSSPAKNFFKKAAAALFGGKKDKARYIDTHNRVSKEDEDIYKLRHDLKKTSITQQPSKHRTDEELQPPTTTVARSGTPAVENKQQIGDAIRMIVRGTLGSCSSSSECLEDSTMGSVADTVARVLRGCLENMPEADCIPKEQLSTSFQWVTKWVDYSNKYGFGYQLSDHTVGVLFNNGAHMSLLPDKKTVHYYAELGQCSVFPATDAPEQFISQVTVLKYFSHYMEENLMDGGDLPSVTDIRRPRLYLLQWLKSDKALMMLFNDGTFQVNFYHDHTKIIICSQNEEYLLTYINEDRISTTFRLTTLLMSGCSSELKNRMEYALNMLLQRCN

[10] = molecular target: Serine/threonine-protein kinase/endoribonuclease IRE1 (Homo sapiens) (UniProt O75460); details: Compound concentration 1000.0 nM
[11] = molecular target: 1-phosphatidylinositol 3-phosphate 5-kinase (Homo sapiens) (UniProt Q9Y2I7); details: Compound concentration 1000.0 nM
[12] = test system: Hepatocyte growth factor receptor (Homo sapiens), P08581 [Y1235D]; details: Compound concentration 1000.0 nM
[13] = molecular target: Testis-specific serine/threonine-protein kinase 1 (Homo sapiens) (UniProt Q9BXA7); details: Compound concentration 1000.0 nM
[14] = molecular target: Phosphatidylinositol 4-phosphate 3-kinase C2 domain-containing subunit beta (Homo sapiens) (UniProt O00750); details: Compound concentration 1000.0 nM
[15] = molecular target: Serine/threonine-protein kinase ULK3 (Homo sapiens) (UniProt Q6PHR2); details: Compound concentration 1000.0 nM
[16] = molecular target: Tyrosine-protein kinase ABL1 (Homo sapiens) (UniProt P00519); details: Compound concentration 1000.0 nM
[17] = molecular target: 3-phosphoinositide-dependent protein kinase 1 (Homo sapiens) (UniProt O15530); details: Compound concentration 1000.0 nM
[18] = molecular target: Sigma non-opioid intracellular receptor 1 (Homo sapiens) (UniProt Q99720); details: Compound concentration 10.0 uM
Sequence of Sigma non-opioid intracellular receptor 1 (Homo sapiens) (Q99720 whole entry): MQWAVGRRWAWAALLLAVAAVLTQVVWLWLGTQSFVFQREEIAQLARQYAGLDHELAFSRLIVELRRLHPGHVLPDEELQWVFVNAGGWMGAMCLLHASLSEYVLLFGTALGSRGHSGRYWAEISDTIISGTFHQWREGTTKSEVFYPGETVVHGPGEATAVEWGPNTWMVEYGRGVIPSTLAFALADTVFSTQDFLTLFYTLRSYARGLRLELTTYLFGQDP

[19] = molecular target: MAP kinase-activated protein kinase 5 (Homo sapiens) (UniProt Q8IW41); details: Compound concentration 1000.0 nM
[20] = molecular target: Dual specificity protein kinase CLK4 (Homo sapiens) (UniProt Q9HAZ1); details: Compound concentration 1000.0 nM
[21] = molecular target: Calcium/calmodulin-dependent protein kinase type II subunit beta (Homo sapiens) (UniProt Q13554); details: Compound concentration 1000.0 nM
[22] = molecular target: LIM domain kinase 1 (Homo sapiens) (UniProt P53667); details: Compound concentration 1000.0 nM
Sequence of LIM domain kinase 1 (Homo sapiens) (P53667 whole entry, looked up, the tested form may be a part): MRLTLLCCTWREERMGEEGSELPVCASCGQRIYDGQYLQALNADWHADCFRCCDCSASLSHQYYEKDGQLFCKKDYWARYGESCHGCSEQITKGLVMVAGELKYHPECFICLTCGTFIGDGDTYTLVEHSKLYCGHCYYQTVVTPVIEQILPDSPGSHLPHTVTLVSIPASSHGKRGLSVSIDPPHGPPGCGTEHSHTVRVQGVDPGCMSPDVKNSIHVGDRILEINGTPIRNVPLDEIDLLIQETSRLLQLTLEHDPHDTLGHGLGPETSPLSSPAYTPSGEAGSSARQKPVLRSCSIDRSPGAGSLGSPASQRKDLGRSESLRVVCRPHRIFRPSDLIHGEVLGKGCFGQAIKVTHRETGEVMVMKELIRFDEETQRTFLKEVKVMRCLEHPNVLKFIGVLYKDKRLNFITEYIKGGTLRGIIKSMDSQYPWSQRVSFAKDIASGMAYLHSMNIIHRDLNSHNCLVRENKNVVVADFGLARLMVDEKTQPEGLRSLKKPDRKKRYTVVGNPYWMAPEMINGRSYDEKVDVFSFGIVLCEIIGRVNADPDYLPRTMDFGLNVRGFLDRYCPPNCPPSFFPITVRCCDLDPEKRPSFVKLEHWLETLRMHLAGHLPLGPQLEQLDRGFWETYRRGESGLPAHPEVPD

[23] = molecular target: Cyclin-dependent kinase-like 3 (Homo sapiens) (UniProt Q8IVW4); details: Compound concentration 1000.0 nM
[24] = molecular target: Cyclin-dependent kinase 4 (Homo sapiens) (UniProt P11802); details: Compound concentration 1000.0 nM
Sequence of Cyclin-dependent kinase 4 (Homo sapiens) (P11802 whole entry): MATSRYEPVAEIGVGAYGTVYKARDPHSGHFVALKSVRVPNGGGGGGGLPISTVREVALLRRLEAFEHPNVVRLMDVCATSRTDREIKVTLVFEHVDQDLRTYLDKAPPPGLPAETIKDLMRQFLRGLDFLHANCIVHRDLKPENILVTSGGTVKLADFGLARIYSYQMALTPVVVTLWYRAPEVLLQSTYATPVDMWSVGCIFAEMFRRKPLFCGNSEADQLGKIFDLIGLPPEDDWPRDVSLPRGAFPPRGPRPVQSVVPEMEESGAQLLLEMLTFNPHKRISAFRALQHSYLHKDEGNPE

[25] = molecular target: NUAK family SNF1-like kinase 1 (Homo sapiens) (UniProt O60285); details: Compound concentration 1000.0 nM
[26] = molecular target: Tyrosine-protein kinase receptor UFO (Homo sapiens) (UniProt P30530); details: Compound concentration 1000.0 nM
[27] = molecular target: Serine/threonine-protein kinase 38-like (Homo sapiens) (UniProt Q9Y2H1); details: Compound concentration 1000.0 nM
[28] = test system: Fibroblast growth factor receptor 3 (Homo sapiens), P22607 [G697C]; details: Compound concentration 1000.0 nM
[29] = molecular target: Serine/threonine-protein kinase Sgk2 (Homo sapiens) (UniProt Q9HBY8); details: Compound concentration 1000.0 nM
Sequence of Serine/threonine-protein kinase Sgk2 (Homo sapiens) (Q9HBY8 whole entry): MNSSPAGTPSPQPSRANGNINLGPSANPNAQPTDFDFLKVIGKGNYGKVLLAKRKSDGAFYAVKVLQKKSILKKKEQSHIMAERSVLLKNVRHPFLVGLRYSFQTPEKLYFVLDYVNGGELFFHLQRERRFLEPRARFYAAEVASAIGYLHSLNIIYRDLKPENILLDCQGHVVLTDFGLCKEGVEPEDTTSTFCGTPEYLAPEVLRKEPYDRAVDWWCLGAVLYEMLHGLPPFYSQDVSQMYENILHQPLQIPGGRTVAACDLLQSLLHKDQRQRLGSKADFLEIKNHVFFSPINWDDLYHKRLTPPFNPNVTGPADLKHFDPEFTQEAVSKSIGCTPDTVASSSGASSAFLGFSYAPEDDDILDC

[30] = molecular target: Homeodomain-interacting protein kinase 1 (Homo sapiens) (UniProt Q86Z02); details: Compound concentration 1000.0 nM
[31] = molecular target: Phosphatidylinositol 4,5-bisphosphate 3-kinase catalytic subunit delta isoform (Homo sapiens) (UniProt O00329); details: Compound concentration 1000.0 nM
[32] = molecular target: Platelet-derived growth factor receptor alpha (Homo sapiens) (UniProt P16234); details: Compound concentration 1000.0 nM
[33] = molecular target: Serine/threonine-protein kinase pim-2 (Homo sapiens) (UniProt Q9P1W9); details: Compound concentration 1000.0 nM
[34] = test system: ALK tyrosine kinase receptor (Homo sapiens), Q9UM73 [L1196M]; details: Compound concentration 1000.0 nM
[35] = molecular target: Serine/threonine-protein kinase PAK 1 (Homo sapiens) (UniProt Q13153); details: Compound concentration 1000.0 nM
[36] = molecular target: Serine/threonine-protein kinase RIO2 (Homo sapiens) (UniProt Q9BVS4); details: Compound concentration 1000.0 nM
[37] = molecular target: Inhibitor of nuclear factor kappa-B kinase subunit alpha (Homo sapiens) (UniProt O15111); details: Compound concentration 1000.0 nM
[38] = molecular target: Mast/stem cell growth factor receptor Kit (Homo sapiens) (UniProt P10721); details: Compound concentration 1000.0 nM
[39] = molecular target: Cyclin-dependent kinase 13 (Homo sapiens) (UniProt Q14004); details: Compound concentration 1000.0 nM
Sequence of Cyclin-dependent kinase 13 (Homo sapiens) (Q14004 whole entry, looked up): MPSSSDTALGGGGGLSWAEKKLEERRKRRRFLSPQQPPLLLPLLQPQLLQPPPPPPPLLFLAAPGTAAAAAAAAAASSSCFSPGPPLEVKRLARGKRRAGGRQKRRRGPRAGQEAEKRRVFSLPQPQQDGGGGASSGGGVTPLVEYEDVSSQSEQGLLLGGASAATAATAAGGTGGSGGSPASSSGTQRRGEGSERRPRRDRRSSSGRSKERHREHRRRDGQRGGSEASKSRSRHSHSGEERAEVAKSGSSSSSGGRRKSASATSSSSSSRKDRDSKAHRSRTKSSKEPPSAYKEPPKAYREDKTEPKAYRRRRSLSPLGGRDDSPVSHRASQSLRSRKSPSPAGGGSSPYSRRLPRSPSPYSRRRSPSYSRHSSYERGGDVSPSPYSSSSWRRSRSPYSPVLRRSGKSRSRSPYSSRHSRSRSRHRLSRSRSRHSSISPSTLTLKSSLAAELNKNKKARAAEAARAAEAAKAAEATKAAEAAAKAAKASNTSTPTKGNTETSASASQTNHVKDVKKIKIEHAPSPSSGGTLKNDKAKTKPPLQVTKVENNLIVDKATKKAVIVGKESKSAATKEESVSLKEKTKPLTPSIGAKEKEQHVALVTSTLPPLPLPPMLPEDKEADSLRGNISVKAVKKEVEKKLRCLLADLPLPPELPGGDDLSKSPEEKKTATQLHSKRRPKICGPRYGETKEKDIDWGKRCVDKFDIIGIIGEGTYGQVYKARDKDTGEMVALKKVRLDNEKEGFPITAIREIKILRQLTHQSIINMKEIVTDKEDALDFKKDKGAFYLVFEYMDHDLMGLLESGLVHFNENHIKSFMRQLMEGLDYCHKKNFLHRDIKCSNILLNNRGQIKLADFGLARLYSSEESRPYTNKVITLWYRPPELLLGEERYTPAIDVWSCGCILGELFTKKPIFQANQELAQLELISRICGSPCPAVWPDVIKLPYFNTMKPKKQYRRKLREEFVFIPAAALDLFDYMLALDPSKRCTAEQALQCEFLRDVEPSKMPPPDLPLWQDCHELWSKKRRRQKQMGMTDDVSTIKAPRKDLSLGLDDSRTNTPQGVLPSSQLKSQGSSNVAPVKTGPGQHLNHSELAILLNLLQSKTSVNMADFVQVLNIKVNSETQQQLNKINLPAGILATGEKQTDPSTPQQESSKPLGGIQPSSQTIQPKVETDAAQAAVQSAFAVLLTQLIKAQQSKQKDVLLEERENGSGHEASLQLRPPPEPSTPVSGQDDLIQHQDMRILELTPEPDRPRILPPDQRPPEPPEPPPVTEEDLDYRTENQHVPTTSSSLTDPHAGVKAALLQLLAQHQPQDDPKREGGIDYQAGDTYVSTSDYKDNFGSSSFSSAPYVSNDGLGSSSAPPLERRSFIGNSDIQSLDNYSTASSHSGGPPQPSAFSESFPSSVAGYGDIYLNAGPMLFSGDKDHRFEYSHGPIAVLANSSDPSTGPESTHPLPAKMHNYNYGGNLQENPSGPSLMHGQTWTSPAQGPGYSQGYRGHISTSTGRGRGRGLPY

[40] = molecular target: Serine/threonine-protein kinase D1 (Homo sapiens) (UniProt Q15139); details: Compound concentration 1000.0 nM
[41] = molecular target: Leukocyte tyrosine kinase receptor (Homo sapiens) (UniProt P29376); details: Compound concentration 1000.0 nM
[42] = test system: Receptor-type tyrosine-protein kinase FLT3 (Homo sapiens), P36888 [D835Y]; details: Compound concentration 1000.0 nM
[43] = molecular target: Serine/threonine-protein kinase TAO1 (Homo sapiens) (UniProt Q7L7X3); details: Compound concentration 1000.0 nM
[44] = molecular target: Fibroblast growth factor receptor 1 (Homo sapiens) (UniProt P11362); details: Compound concentration 1000.0 nM
[45] = molecular target: Serine/threonine-protein kinase ICK (Homo sapiens) (UniProt Q9UPZ9); details: Compound concentration 1000.0 nM

Sequence of Beta-1 adrenergic receptor (Homo sapiens) (P08588 whole entry, looked up): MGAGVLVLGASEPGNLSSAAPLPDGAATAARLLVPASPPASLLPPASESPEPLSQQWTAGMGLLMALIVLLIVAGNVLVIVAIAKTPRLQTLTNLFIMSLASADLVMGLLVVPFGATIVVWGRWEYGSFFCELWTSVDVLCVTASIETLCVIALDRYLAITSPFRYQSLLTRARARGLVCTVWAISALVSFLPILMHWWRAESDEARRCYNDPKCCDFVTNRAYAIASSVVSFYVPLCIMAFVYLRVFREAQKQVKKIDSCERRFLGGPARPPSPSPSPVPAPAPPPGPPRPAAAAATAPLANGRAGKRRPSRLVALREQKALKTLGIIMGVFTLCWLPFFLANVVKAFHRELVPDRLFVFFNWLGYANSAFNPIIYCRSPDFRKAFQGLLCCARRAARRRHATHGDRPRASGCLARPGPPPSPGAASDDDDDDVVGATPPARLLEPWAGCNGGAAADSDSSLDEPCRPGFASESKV

O=C(NCc1ncc(C(F)(F)F)cc1Cl)c1ccc2c(c1)C1(CCS(=O)(=O)CC1)[C@@H](C1CC1)N2S(=O)(=O)c1ccc(F)cc1 [BAY-786]
inhibition [1]: -1.82% | residual activity [2]: 100% | inhibition [3]: 4.54% | residual activity [4]: 63% | residual activity [5]: 83% | residual activity [6]: 83% | residual activity [7]: 100% | residual activity [8]: 74% | residual activity [9]: 74% | residual activity [10]: 65% | residual activity [11]: 73% | residual activity [12]: 100% | residual activity [13]: 100% | residual activity [14]: 90% | residual activity [15]: 69% | residual activity [16]: 89% | residual activity [17]: 92% | inhibition [18]: 37.6% | residual activity [19]: 100% | residual activity [20]: 100% | residual activity [21]: 92% | residual activity [22]: 91% | residual activity [23]: 100% | residual activity [24]: 80% | residual activity [25]: 88% | residual activity [26]: 100% | residual activity [27]: 94% | residual activity [28]: 80% | residual activity [29]: 77% | residual activity [30]: 70% | residual activity [31]: 67% | residual activity [32]: 87% | residual activity [33]: 92% | residual activity [34]: 87% | residual activity [35]: 80% | residual activity [36]: 77% | residual activity [37]: 84% | residual activity [38]: 82% | residual activity [39]: 89% | residual activity [40]: 76% | residual activity [41]: 81% | residual activity [42]: 100% | residual activity [43]: 91% | residual activity [44]: 100% | residual activity [45]: 97%

O=C(NCc1ncc(C(F)(F)F)cc1Cl)c1ccc2c(c1)C1(CCS(=O)(=O)CC1)[C@H](C1CC1)N2S(=O)(=O)c1ccc(F)cc1 [BAY-784]
inhibition [1]: -0.08% | residual activity [2]: 100% | inhibition [3]: 14.4% | residual activity [4]: 100% | residual activity [5]: 99% | residual activity [6]: 80% | residual activity [7]: 99% | residual activity [8]: 100% | residual activity [9]: 76% | residual activity [10]: 78% | residual activity [11]: 84% | residual activity [12]: 100% | residual activity [13]: 100% | residual activity [14]: 100% | residual activity [15]: 85% | residual activity [16]: 92% | residual activity [17]: 91% | inhibition [18]: 17.8% | residual activity [19]: 100% | residual activity [20]: 0% | residual activity [21]: 98% | residual activity [22]: 100% | residual activity [23]: 100% | residual activity [24]: 93% | residual activity [25]: 83% | residual activity [26]: 100% | residual activity [27]: 91% | residual activity [28]: 100% | residual activity [29]: 83% | residual activity [30]: 83% | residual activity [31]: 67% | residual activity [32]: 90% | residual activity [33]: 94% | residual activity [34]: 76% | residual activity [35]: 100% | residual activity [36]: 77% | residual activity [37]: 77% | residual activity [38]: 100% | residual activity [39]: 88% | residual activity [40]: 93% | residual activity [41]: 87% | residual activity [42]: 100% | residual activity [43]: 100% | residual activity [44]: 49% | residual activity [45]: 100%
